Results: patent US20030064989A1, “Inhibitors of cell proliferation, angiogenesis, fertility, and muscle contraction” (priority 2001, published 2003)
Several values for one entry are separate records, joined by “and”; a condition that tells them apart may be missing. Identical values can stand only once. Entries after “also recorded” stand apart in the source; their conditions may differ.

Experiments:
[1] = system: chick chorioallantoic membrane (CAM); assay: Chick chorioallantoic membrane (CAM) assay, CAM area; details: for LOAEL / LOAEL (Molar) / NOAEL (Molar) / LOAEL (mg/ml): day 5-6 CAMs, 24 hours; for minimal effective concentration: Gallus gallus, 24 h, read-out: lowest effective dose on CAM area; for effect on CAM area: 5e-11M
Procedure: The chick chorioallantoic membrane (CAM) assay is perhaps the most widely used assay for screening anti-angiogenic or growth inhibitory compounds (see, e.g. Ribatti et al., Int. J. Dev. Biol. 40:1189-1197 (1996)). Cell proliferation and angiogenesis were evaluated by measuring CAM area and BrdU labeling using the CAM assay as modified by Melkonian et al., J. Exp. Zool. (2001), in review. Fertilized chicken eggs were purchased from Hy-Line International (Lakeview, CA), then incubated at 37° C. at 85-90% relative humidity throughout the experiment. Experiments were done to evaluate cell proliferation, angiogenesis, and vascularization in CAMs between days 5 and 6 after fertilization. Albumin (2.5-3.0 cc) was removed on the fourth day after fertilization to drop the embryo away from the shell. Windows were then made in shells, and sealed with transparent tape to allow subsequent access to the CAM for experimental treatment. 200 μl of either EBSS-H or different concentrations of pure chemicals were added to the surface of each CAM at 10 AM on the fifth day after fertilization. A sham control group in which the window was opened and resealed was also included in each experiment. In all cases, the following five concentrations of test reagents were used, 5×10^−3 M, 5×10^−5 M, 5×10^−7M, 5×10^−9 M and 5×10^−11M. For 2-ethylpyridine and 3-ethylpyridine additional concentrations of 5×10^−12M, 5×10^−13M, 5×10^−14 M and 5×10^−15 M were used. For nicotine and nornicotine, concentrations of 5×10^−4 M, 5×10^−6 M, 5×10^−8 M and 5×10^−10 M were also used. Development was terminated at 10 AM on the sixth day after fertilization by fixing the embryo and the CAM with 3% glutaraldehyde in 0.1M cacodylate buffer (pH 7.4) for 2 hours at room temperature. A small volume of fixative was also injected under the CAM. The CAMs were later dissected from eggs, post-fixed in the same fixative for 24 hours at room temperature, then thoroughly rinsed in PBS.
At least 6 CAMs were used in each control and experimental group. Parameters which measure aspects of cell proliferation, angiogenesis, and vacularization were quantified for each CAM. These parameters include: (1) for cell proliferation—CAM area, BrdU labeling of nuclei; (2) for angiogenesis—blood vessel pattern, blood vessel area, blood vessel diameter, and blood vessel branching; (3) for vascularization—density of angiogenic clusters. The area of each CAM was measured by placing the CAMs in PBS in a Petri dish under a Wild-M5A dissecting microscope (Max ERB instrument Co., Burbank, CA), then measuring the longest and shortest length of each CAM with a ruler to the precision of 0.5 mm. The data were recorded into Excel spreadsheet. CAM area was calculated using the formula:
where A=longest length, B=longest width, π=3.14.
Means and standard deviations were then calculated for each control and treatment group. The treated group means were used to compare with control means to determine the effect of each chemical on CAM growth.
On the fifth day after fertilization, either EBSS-H or different concentrations of test chemicals were added to each CAM. A sham group in which windows were opened and resealed without adding any solution was also included to determine if the vehicle EBSS-H had any effect on CAM area. Development was terminated 24 hours later, and CAMs were measured as described in Materials and Methods.

nuclei of day 5 CAMs = assay: BrdU labeling of CAMs (cell proliferation); format: in vivo, chick
Procedure: Eight hours after the initial EBSS-H or chemical treatment on day 5 after fertilization, […] BrdU (Sigma, St. Louis, Mo.) were added to each CAM surface. Another 55 minutes after the BrdU treatment, the development of the CAMs was terminated by transferring the embryos and CAMs into a −20° C. freezer for 2-3 minutes. Embryos and CAMs were then fixed at −20° C. in 70% ethanol containing 50 mM glycine buffer, pH 2.0 for 1.5 hours. CAMs were then dissected out of the eggs, washed in PBS and dehydrated in 30%, 50%, 75%, 90% and 100% ethanol series. Dehydrated CAM tissues were further processed in Hypercenter II Tissue Processing System (Shandon Inc., Pittsburgh, Pa.), then embedded in paraffin using Sakura Tissue-TE (Shandon Inc., Pittsburgh, Pa.). Paraffin Sections were cut using a S20 Spencer microtome (Labequip, American Optical Corp., Ontario, Canada), and were mounted on Superfrost/plus glass slides (Fisher Scientific, Tustin, CA). Sections were deparaffinized with 3 changes of Hemo-De for 15 minutes each, 2 changes of 100% ethanol for 5 minutes each, then rehydrated in PBS. […] Images were recorded using a Spot digital camera-SP401-115 (Diagnostic Instruments, Sterling Heights, MI) and processed and montaged using Adobe Photoshop (San Jose, Calif.). […]

[2] = system: blood vessels of the chick chorioallantoic membrane (CAM); assay: CAM angiogenesis: blood vessel area, pattern formation, capillary plexus; format: in vivo
Procedure: (2001), in review. […] The surface of each CAM was further dissected out of the CAM pocket in PBS. CAMs were then flattened with 18×18-1.5 Fisherbrand microscope cover slip (Fisher Scientific, Pittsburgh, Pa.) in Fisherbrand 60×15 mm standard sterile polystyrene petri dish (Fisher Scientific, Pittsburgh, Pa.). […] Pattern formation was evaluated blindly using video image montages projected on a computer monitor. Images were ranked on a scale of 0 to 3, with 0 being similar to control CAMs and 3 being most dissimilar from controls. The area occupied by major blood vessels in control and chemically treated CAMs was measured in digitalized images projected on a computer monitor using NIH image. Boxes (2.4 c 1.98 mm) were placed in each corner of each CAM image, which had been processed to visualize the major blood vessels. The percentage of pixels occupied by the blood vessels was quantified in each box and an average percentage was computed from the four boxes measured from each CAM. These values were used to compute means and standard deviations for each group. Blood vessel diameter and branching were measured in images projected on a computer monitor using NIH Image software. Density of angiogenic clusters was evaluated in toluidine blue stained histological sections that were digitalized and projected on a computer monitor.

SMILES | LOAEL ([1]; CAM area) | LOAEL (Molar) ([1]; CAM area) | NOAEL (Molar) ([1]; CAM area) | minimal effective concentration [1] | also measured
Cc1cccnc1C [2,3-dimethylpyridine] | 0.00536 mg/mL | 50 µM | 500 nM | 50 µM and 5.36 µg/mL | 
Cc1cc(C)nc(C)c1 [2,4,6-trimethylpyridine] | 0.0061 mg/mL | 50 µM | 500 nM | 50 µM and 6.1 µg/mL | 
Cc1ccnc(C)c1 [2,4-dimethylpyridine] | 0.00536 mg/mL | 50 µM | 500 nM | 50 µM and 5.36 µg/mL | 
CCc1ccccn1 [2-ethylpyridine] | 5.36e-10 mg/mL | 5e-06 µM | 0.0005 nM | 5e-06 µM and 5.4e-07 µg/mL | incorporation of BrdU into nuclei (nuclei of day 5 CAMs; 5e-11, eight hours): significantly less incorporation of BrdU; major blood vessel pattern formation ([2]; 5e-3M): disturbance in major blood vessel pattern formation; dendritic branching pattern ([2]; all doses tested): disrupted; formation of the capillary plexus ([2]; in vivo): significantly inhibited; also recorded: failed to form; dose at which blood vessel area was significantly decreased ([2]; vs EBSS control, exposed day 5, evaluated day 6): 50 pM; CAM size compared with control groups ([1]; 5e-3M): significantly smaller; lowest effective dose lower than that of the single pyridine ring ([1]; CAM area): 10 million; CAM growth / size compared with control ([1]; dose not stated): significantly inhibited
Cc1ccccn1 [2-methylpyridine] |  | 0.005 µM | 0.05 nM | 0.005 µM and 0.000466 µg/mL | incorporation of BrdU into nuclei (nuclei of day 5 CAMs; 5e-9, eight hours): significantly less incorporation of BrdU; LOAEL (mg/ml) ([1]; CAM area): 4.66e−7 mg/lml mg/ml
Cc1cccnc1 [3-methylpyridine] |  | 0.005 µM | 0.05 nM | 0.005 µM and 0.000466 µg/mL | LOAEL (mg/ml) ([1]; CAM area): 4.66e−7 mg/lml mg/ml
c1cc(-c2ccncc2)ccn1 [4,4-bipyridine] | 0.0781 mg/mL | 500 µM | 50000 nM | 500 µM and 78.1 µg/mL | 
C=Cc1ccncc1 [4-ethenylpyridine] | 0.00526 mg/mL | 50 µM | 500 nM | 50 µM and 5.26 µg/mL | 
c1ccncc1 [Pyridine, pyridine, reference compound] | 0.00396 mg/mL | 50 µM | 500 nM | 50 µM and 3.96 µg/mL | 
Cn1cccc1-c1cccnc1 [b-nicotyrine, 3-(1-methylpyrrol-2-yl)pyridine] | 7.9e-05 mg/mL | 0.5 µM | 5 nM | 0.5 µM and 0.079 µg/mL | effect on CAM area [1]: slight increase
CN1CCCC1c1cccnc1 (stereo not drawn) [nicotine, 1-methyl-2-(3-pyridyl)pyrrolidine] | 0.081 mg/mL | 500 µM | 50000 nM | 500 µM and 81 µg/mL | effect on CAM area [1]: significant stimulatory effect
c1cncc([C@@H]2CCCN2)c1 [nornicotine, 3-(1-pyrrolidin-2-yl)pyridine] | 0.0074 mg/mL | 50 µM | 5000 nM | 50 µM and 7.4 µg/mL | effect on CAM area [1]: significant stimulatory effect
